In brackets after ≈: the same amount, converted by molar mass. Like-named read-outs stand apart in the source and are kept apart here.
What was measured:
[1] = Solubility in water (at pH=7); assay type: physicochemical
From the text: Test Example 6: Solubility of the Compounds of the Invention in Water (at pH=7)

JAK2 = molecular target: T1, JAK2 (Homo sapiens, UniProt O60674, cells depend on it, form not given); test: JAK family kinase selectivity assay, Ba/F3-TEL-JAK2 cell proliferation; assay type: cell-based; details: read-out: Ba/F3 Cell IC50 JAK2; Ba/F3-TEL-JAK2, 72 h
T1 construct: fused on or other part: N-terminal part of TEL (ETV6) as oligomerising partner; it is the second protein of the fusion and part of the key; P41212 (Transcription factor ETV6)
From the text: (§1) There are four kinases in the JAK family, respectively TYK2, JAK1, JAK2 and JAK3. JAK family kinase genes were introduced into the wild-type murine B lymphocytes (BaF3), and four BaF3 engineered cell lines were constructed respectively (Ba/F3-FL-TYK2-E957D, Ba/F3-TEL-JAK1, Ba/F3-TEL-JAK2, Ba/F3-TEL-JAK3). The growth and proliferation of these engineered cell lines were not dependent on IL-3, but on exogenously transferred JAK family kinases.
(§2) In this experiment, the inhibitory effects of the compounds on the proliferation of four cell types, Ba/F3-FL-TYK2-E957D, Ba/F3-TEL-JAK1, Ba/F3-TEL-JAK2, and Ba/F3-TEL-JAK3 were tested, and apoptosis was detected, and the IC50 values were calculated. The inhibitory activities of the compounds against TYK2, JAK1, JAK2, and JAK3 kinases were evaluated based on the IC50 value, thus assessing the JAK family kinase selectivity of the compounds.
(§3) The tested compounds, powder and stored at room temperature, were prepared into 10 mM stock solution with DMSO and stored at −20° C. away from light for use.
(§4) Compounds were formulated into dilute solutions which was 1000 times of the final concentration. The compound was prepared into 20-times of final concentration by diluting the compound with culture medium. 2 ul of 1000-times compound was added per well to 98 ul of culture medium.
(§5) Cells (provided by Sundia Pharmaceutical Technology (Shanghai) Co., Ltd.) were resuspended and counted using an automated cell counter. The cell suspension was diluted to the desired density based on BaF3 seeding density of 2000 cells per well. Each well was plated with 95 ul of cells and incubated at 37° C. for stable equilibrium. […]
(§6) The cell plate was equilibrated to room temperature. […] Detected with SpectraMax Paradigm.
(§7) • (1) IC50 was calculated using GraphPad Prism 5. • (2) % Inh=(Max signal-Compound signal)/(Max signal-Min signal)×100. • (3) Max signal was the positive control well with only the same volume of DMSO as the compound. • (4) Min signal was the negative control well with only the culture medium.

JAK3 = molecular target: T2, JAK3 (Homo sapiens, UniProt P52333, cells depend on it, form not given); test: JAK family kinase selectivity assay, Ba/F3-TEL-JAK3 cell proliferation; assay type: cell-based; details: read-out: Ba/F3 Cell IC50 JAK3; Ba/F3-TEL-JAK3, 72 h
T2 construct: fused on or other part: N-terminal part of TEL (ETV6) as oligomerising partner; P41212 (Transcription factor ETV6)
From the text: as §1, §2, §3, §4, §5, §6, §7

[2] = dogs, 2 mg/kg, literature values; cited from earlier work
[3] = In vivo pharmacokinetic experiment in rats (oral); design: species or system SD rats; details: 5 mg/kg
Description: Experimental method: Healthy male SD rats were randomly grouped into 3 rats in each group and given the test compound orally. The rats were fasted for 12 h before the gavage experiment, and drank water freely, and were fed uniformly for 4 h after the administration of the compounds. Before (0 h) and 0.25, 0.5, 1.0, 2.0, 4.0, 6.0, 8.0 and 24 h after the administration of the test compounds, 0.2 mL of blood was collected from the jugular vein at the above set time points and placed in EDTA-K2 tubes, and the whole blood was collected and stored temporarily in an ice-water bath, and then centrifuged at 11,000 rpm for 5 min within 30 min, the plasma was separated, and frozen at −70° C. in a refrigerator for testing.

[4] = system: IFN-α-induced STAT phosphorylation; test: IFN-α-induced STAT phosphorylation in human whole blood; assay type: cell-based; details: human whole blood, 20 ng/ml IFN-α, pSTAT5 in CD3-positive cells; read-out: IC50, IFN-α inflammatory pathway (IFN-α-induced STAT phosphorylation)
From the text: The cytokine receptor attached to TYK2 mediates the signaling of type 1 interferon (IFN-α), which has been identified as the most important inflammatory factor of the autoimmune system. Human whole blood is induced with IFN-α, and TYK2 from lymphocytes in whole blood triggered STAT phosphorylation, which mediated subsequent inflammatory signaling. Therefore, TYK2 inhibitors have an inhibitory effect on IFN-α signaling, and the stronger the TYK2 inhibitory activity, the lower the level of STAT phosphorylation, and the stronger the corresponding anti-inflammatory effect.
In this experiment, the ability of the compounds to inhibit IFN-α-induced STAT phosphorylation in human whole blood were tested, and the IC50 values were calculated. The anti-inflammatory activity of the compounds was evaluated at the tissue level and evaluation of the inhibitory activity of compounds on the IFN-α inflammatory pathway based on the IC50 value.
The tested compound, powder and stored at room temperature, prepared into 10 mM stock solution with DMSO and stored at −80° C. in the refrigerator.
1× Fix/Lysis solution preparation: 5× Fix/Lysis and ddH2O were diluted according to 1:4 and preheated in 37° C. incubator, waiting for use.
Flow cytometric staining buffer preparation: 1 g of bovine serum albumin (BSA) and 1 mL of EDTA (0.5 M) solution were added to 500 mL of phosphate buffer solution (PBS) and stored at 4° C. in the refrigerator.
Compound dilution solution: 0.5 g of bovine serum albumin (BSA) was added to 500 mL of phosphate buffer solution (PBS), and stored at 4° C. in the refrigerator.
50 μg/mL IFN-alpha was diluted to 400 ng/mL with Compound Diluent and set aside.
67.5 μL of human whole blood was added to a 96-well plate using a 300 μL electric volley gun. 3.5 μL of prepared test compound was added, mixed well and placed in the cell culture incubator. After 60 min incubation, 400 ng/mL IFN-α (Biolegend 592702, final concentration 20 ng/ml) was added. The obtained was mixed well and placed in the cell culture incubator to continue incubation for 15 min.
After cytokine stimulation, 5 ul of PE-CD3 (BD 555333) antibody was added to each well, mixed and incubation was continued at 4° C. in the refrigerator. At the end, whole blood was transferred to a 96-well deep-well plate using a volley gun, pre-warmed 1× Fix/Lysis solution was added, and cells were lysed and fixed for 12 minutes at 37° C. in an incubator. After being washed, 400 μL of Perm III solution was added, vortexed and incubated on ice for 30 minutes. Cells were then stained by 100 μL of APC-pSTAT5 (1:100) antibody for 50 min at room temperature. This was followed by flow-through instrumentation. The expression of pSTAT5 was quantified by median fluorescence intensity after gating the CD3-positive signaling cluster.

TYK2 = molecular target: T3, TYK2 (Homo sapiens, UniProt P29597, E957D); test: TYK2 kinase activity inhibition assay (Ba/F3-FL-TYK2-E957D cell proliferation, CellTiter-Glo); assay type: cell-based; details: 72 h
T3 construct: host or cells: Ba/F3 (murine B lymphocytes)
Description: The TYK2 kinase gene was introduced into wild-type murine-derived B lymphocytes (BaF3) to construct the Ba/F3-FL-TYK2-E957D stable cell line.
In this experiment, the inhibitory effect of the compounds on the proliferation of Ba/F3-FL-TYK2-E957D cells were tested, apoptosis was detected, and the IC50 value was calculated. The inhibitory activity of the compounds against TYK2 kinase was evaluated based on the IC50 value.
as §3
Compounds were prepared into dilute solutions which was 1000 times of the final concentration. The compound was prepared into 20-times of the final concentration by diluting the compound with culture medium. 2 ul of 1000-times compound was added to per well to 98 ul of culture medium.
Cells (provided by Sundia Pharmaceutical Technology (Shanghai) Co., Ltd.) were resuspended and counted using an automated cell counter. The cell suspension was diluted to the desired density based on BaF3 seeding density of 2000 cells per well. Each well was plated with 95 ul of cells and incubated at 37° C. for stable equilibrium. 5 ul of 20-times compound was added to each well, with the wells to which the same volume of DMSO was added as a control.
The cell plate was equilibrated to room temperature. 40 ul CellTiter-Glo® Reagent was added to each well, shaken for 2 minutes and allowed to stand for 10 minutes. Detected with SpectraMax Paradigm.
• (1) IC50 was calculated using GraphPad Prism 5. • (2) % Inh=(Max signal−Compound signal)/(Max signal−Min signal)×100. • (3) Max signal was the positive control well with only the same volume of DMSO as the compound. • (4) Min signal was the negative control well with only the culture medium.

T3 sequence (P29597 whole entry E957D): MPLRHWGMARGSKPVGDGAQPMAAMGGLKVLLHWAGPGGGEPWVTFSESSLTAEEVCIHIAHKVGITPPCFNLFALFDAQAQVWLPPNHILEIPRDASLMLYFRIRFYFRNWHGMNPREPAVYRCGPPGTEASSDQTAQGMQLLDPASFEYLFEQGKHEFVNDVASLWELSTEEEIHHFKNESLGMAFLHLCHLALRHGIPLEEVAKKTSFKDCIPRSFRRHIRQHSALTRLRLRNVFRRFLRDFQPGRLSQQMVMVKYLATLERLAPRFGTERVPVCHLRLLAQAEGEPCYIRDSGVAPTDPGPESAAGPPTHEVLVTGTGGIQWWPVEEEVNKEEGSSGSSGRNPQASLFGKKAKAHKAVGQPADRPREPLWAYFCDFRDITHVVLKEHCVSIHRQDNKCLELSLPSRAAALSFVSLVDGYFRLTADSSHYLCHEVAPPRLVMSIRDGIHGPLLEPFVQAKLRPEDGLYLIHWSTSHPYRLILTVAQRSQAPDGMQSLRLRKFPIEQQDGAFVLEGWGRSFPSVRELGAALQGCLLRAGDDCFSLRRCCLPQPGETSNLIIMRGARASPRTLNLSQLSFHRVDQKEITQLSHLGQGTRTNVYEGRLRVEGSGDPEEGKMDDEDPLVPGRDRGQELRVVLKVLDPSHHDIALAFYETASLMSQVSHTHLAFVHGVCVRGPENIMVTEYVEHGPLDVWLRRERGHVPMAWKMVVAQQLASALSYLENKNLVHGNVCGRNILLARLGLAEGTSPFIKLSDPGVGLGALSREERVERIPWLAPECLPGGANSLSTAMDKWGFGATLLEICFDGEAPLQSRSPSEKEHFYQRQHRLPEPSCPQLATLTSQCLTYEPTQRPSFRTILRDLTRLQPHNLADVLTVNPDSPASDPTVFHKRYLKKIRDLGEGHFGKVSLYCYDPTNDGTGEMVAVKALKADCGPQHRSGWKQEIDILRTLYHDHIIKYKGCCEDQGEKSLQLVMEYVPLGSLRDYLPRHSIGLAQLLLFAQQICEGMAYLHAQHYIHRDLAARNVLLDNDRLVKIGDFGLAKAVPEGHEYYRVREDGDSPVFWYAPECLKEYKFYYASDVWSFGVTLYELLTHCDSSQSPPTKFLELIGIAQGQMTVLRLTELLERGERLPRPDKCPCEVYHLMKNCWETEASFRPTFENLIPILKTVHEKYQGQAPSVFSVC
T1 sequence (O60674 849-1132 limits assumed, change not shown): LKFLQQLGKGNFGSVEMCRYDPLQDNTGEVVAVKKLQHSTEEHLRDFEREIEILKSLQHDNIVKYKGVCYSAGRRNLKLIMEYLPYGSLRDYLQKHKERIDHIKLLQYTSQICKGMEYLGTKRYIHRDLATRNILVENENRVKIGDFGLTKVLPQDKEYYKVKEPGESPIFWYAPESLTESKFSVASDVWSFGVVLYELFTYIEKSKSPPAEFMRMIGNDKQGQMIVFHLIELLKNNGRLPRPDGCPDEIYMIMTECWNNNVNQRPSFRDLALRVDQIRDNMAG
T2 sequence (P52333 822-1111 limits assumed, change not shown): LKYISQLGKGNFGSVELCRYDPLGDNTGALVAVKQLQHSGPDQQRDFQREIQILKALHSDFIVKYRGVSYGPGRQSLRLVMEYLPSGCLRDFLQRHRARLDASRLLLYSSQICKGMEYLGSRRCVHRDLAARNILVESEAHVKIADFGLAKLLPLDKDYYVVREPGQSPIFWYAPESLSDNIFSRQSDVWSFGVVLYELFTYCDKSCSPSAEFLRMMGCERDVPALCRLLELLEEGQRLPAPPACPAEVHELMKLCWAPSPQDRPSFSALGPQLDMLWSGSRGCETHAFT

## [2H]C([2H])([2H])NC(=O)c1nnc(NC(=O)C2CC2)cc1Nc1cccc(-c2ncn(C)n2)c1OC [BMS-986165, Deucravacitinib, reference compound]
[1]; pH 7, water, read-out: Solubility
  Solubility: 8.2 µg/mL (≈ 19.3 µM)
JAK2
  GI50: > 1000 nM
JAK3
  GI50: > 1000 nM
[2]
  AUC: 1312 ngh/mL
  Cmax: 222 ng/mL
  F: 35.5%
  T1/2: 6.21 h
[3]
  AUC: 2804 ngh/mL
  F: 28.5%
[3]; male, SD, rat, plasma
  Cmax: 229 ng/mL
  MRT: 6.43 h
  half-life: 3.68 h
[4]
  IC50: 23.2 nM

## CN=S(C)(=O)c1cc(F)c(N)nc1Nc1cc(NC(=O)C2CC2)nnc1C(=O)NC (stereo not shown) [Example 22, 4-((6-amino-3-(N,S-dimethylsulfoximino)-5-fluoropyridin-2-yl)amino)-6-(cyclopropylcarboxamido)-N-methylpyridazine-3-carboxamide]
[4]
  IC50: 13 nM

## CN=S(C)(=O)c1cc(Cl)c(N)nc1Nc1cc(NC(=O)C2CC2)nnc1C(=O)NC (stereo not shown) [Example 23]
TYK2
  IC50: 2 nM
[4]
  IC50: 8.1 nM

## CN=S(C)(=O)c1cc(Br)c(N)nc1Nc1cc(NC(=O)C2CC2)nnc1C(=O)NC (stereo not shown) [Example 24, 4-((6-amino-5-bromo-3-(N,S-dimethylsulfoximino)pyridin-2-yl)amino)-6-(cyclopropylcarboxamido)-N-methylpyridazine-3-carboxamide]
TYK2
  IC50: 1.3 nM
[4]
  IC50: 7.5 nM

## CN=S(C)(=O)c1cc(C)c(N)nc1Nc1cc(NC(=O)C2CC2)nnc1C(=O)NC (stereo not shown) [Example 26, 4-((6-amino-3-(N,S-dimethylsulfoximino)-5-methylpyridin-2-yl)amino)-6-(cyclopropylcarboxamido)-N-methylpyridazine-3-carboxamide]
[4]
  IC50: 9.4 nM

## CN=S(C)(=O)c1cc2c(Cl)c[nH]c2nc1Nc1cc(NC(=O)C2CC2)nnc1C(=O)NC (stereo not shown) [Example 32, 4-((3-chloro-5-(N,S-dimethylsulfoximino)-1H-pyrrolo[2,3-b]pyridin-6-yl)amino)-6-(cyclopropylamido)-N-methylpyridazine-3-carboxamide]
TYK2
  IC50: 0.62 nM
[4]
  IC50: 16.1 nM

## [2H]C([2H])([2H])NC(=O)c1nnc(NC(=O)C2CC2)cc1Nc1nc(N)c(Cl)cc1[S@@](C)(=O)=NC [Example 38]
[1]
  Solubility: 47 µg/mL (≈ 103 µM)

Source: patent publication US20250179022A1, “COMPOUND USED AS TYK2 INHIBITOR, PREPARATION METHOD THEREFOR, AND PHARMACEUTICAL USE THEREOF” (SHANGHAI ZHIGEN PHARMACEUTICAL & TECHNOLOGY CO. LTD., priority 2022, published 2025)
